Measured values taken from patent US20250114486A1, “MARKED FATTY ACID DERIVATIVE, PRECURSOR COMPOUND THEREOF, AND USE THEREOF IN CONTRAST AGENT” (BEIJING NORMAL UNIVERSITY, priority 2022, published 2025).

Assay: In vivo biodistribution of radioactive ^99mTc complexes in female SD rats
Design: species or system female Sprague-Dawley (SD) rats
Experimental: Female SD rats (180-220 g, n=3) were fasted for 12 h before the experiment, and the purified radioactive 99mTc complexes 78-81 were prepared into physiological saline (containing 10% ethanol) solutions of about 250-350 μCi/mL. 200 μL of the above solution was injected into the tail vein of female SD rats, and the rats were killed by cervical dislocation at five time points, 15, 30, 60, 120 and 240 min after the tail vein injection. The blood, brain, heart, liver, spleen, lung, kidney, muscle, bone, large intestine, small intestine, stomach and tail were collected, weighed and counted, and the count distribution of each tissue and organ was calculated (unit: % ID/g, the unit of large intestine, small intestine and stomach is % ID), and the data are the mean±standard deviation of three mice in each phase. At the same time, 200 μL of the above solution was diluted to 20 mL, which was used as the % ID without deducting the tail count.

- absolute myocardial uptake values (comparison with complexes 79-81): lower than the above values
- heart-to-liver ratios (comparison with complexes 79-81): lower than the above values
Compound: COC(C)(C)C[N+]#[C][99Tc-5]([C]#[N+]CC(C)(C)OC)([C]#[N+]CC(C)(C)OC)([C]#[N+]CC(C)(C)OC)([C]#[N+]CC(C)(C)OC)[C]#[N+]CC(C)(C)OCCSCCCCC(=O)O [^99mTc complex 78]
